Experimental data from EP0503203A1, “Novel thrombin inhibitors” (MERRELL DOW PHARMACEUTICALS INC., priority 1991, dated 1992).

Legend:
[1] = system: HUMAN LUNG TRYPTASE; assay: Inhibition of tryptase, progress curve analysis; assay type: biochemical; settings: non-linear regression (ENZFITTER)
Description: Using standard in vitro methodology for determining inhibitory activity of tryptase (Journal of Biological Chemistry, Vol. 261, June 5, pp. 7372-7379, 1986), the following results have been obtained.

[2] = system: human plasma; assay: Anticoagulant effect in human plasma, thrombin time (TT); assay type: biochemical
Description: (§1) Anticoagulant data may be represented as follows:

[3] = system: human plasma; assay: Anticoagulant effect in human plasma, activated partial thromboplastin time (aPTT); assay type: biochemical
Description: as §1

[4] = system: rats; assay: FeCl₃-induced thrombosis model in rats; assay type: in vivo; settings: intravenously 10 mg/kg of body weight injection, followed by continuous 1 mg/kg/minute infusion, 4 rats
Description: In vivo anti-thrombotic effects in rats may also be utilized for evaluation. […] Of course, actual dosage and frequency will vary dependent upon the nature and severity of the condition, age, general health conditions and such other factors well known and appreciated by the skilled attending diagnostician.

SMILES | kon [1] [M⁻¹ s⁻¹] | ID₂ TT (amount required for doubling the clotting time) [2] [µM] | ID₂ aPTT (amount required for doubling the clotting time) [3] [µM] | occlusion [4]
CN[C@H](Cc1ccccc1)C(=O)N1CCC[C@H]1C(=O)NC(CCCNC(=N)N)C(=O)C(F)(F)F (stereo partly drawn) [D-CH₃Phe-Pro-Arg-CF₃, N-Methyl-D-phenylalanyl-N[4-(aminoiminomethyl)amino-1-(trifluoroacetyl)butyl]-L-proline amide] | 200 ± 10 | 108 | 218 | –
N=C(N)NCCCC(NC(=O)[C@@H]1CCCN1C(=O)[C@H](N)Cc1ccccc1)C(=O)C(F)(F)C(F)(F)F (stereo partly drawn) [D-Phe-Pro-Arg-CF₂CF₃, D-phenylalanyl-N-[4-(aminoiminomethyl)amino]-1-(pentafluoropropionylbutyl]-L-prolineamide, 1.5 HF, O.5 CH₃CO₂H, 3H₂O] | 1200 ± 40 | 1 | 2 | preventing occlusion in two rats and prolonging occlusion in the other 2 of the 4 rats
N=C(N)NCCCC(NC(=O)[C@@H]1CCCN1C(=O)[C@H](N)Cc1ccccc1)C(=O)C(F)(F)F (stereo partly drawn) [D-Phe-Pro-Arg-CF₃] | 370 ± 40 | 43 | 148 | –
